Assay results published in patent US5258362A, “Renin inhibiting compounds” (Abbott Laboratories, priority 1992, dated 1993).

Molecular target: T1, human renal renin (Homo sapiens, UniProt P00797)
T1 construct: human renal renin, free from acid proteolytic activity; from tissue; host or cells: human kidney (from the word 'renal')
T1 sequence (P00797 67-406): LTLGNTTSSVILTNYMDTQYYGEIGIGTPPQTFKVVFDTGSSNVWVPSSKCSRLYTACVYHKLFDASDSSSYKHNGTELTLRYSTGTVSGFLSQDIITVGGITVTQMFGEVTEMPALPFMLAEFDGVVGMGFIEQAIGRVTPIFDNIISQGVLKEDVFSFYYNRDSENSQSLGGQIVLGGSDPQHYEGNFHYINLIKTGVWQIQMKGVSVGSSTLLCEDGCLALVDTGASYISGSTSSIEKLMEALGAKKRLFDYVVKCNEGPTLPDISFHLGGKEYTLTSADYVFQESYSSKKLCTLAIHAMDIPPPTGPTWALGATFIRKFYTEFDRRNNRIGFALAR
Assay: Inhibition of human renal renin in vitro (angiotensin I formed, measured by radioimmunoassay)
Type: biochemical
Settings: human renal renin with renin substrate (human angiotensinogen), 37° C., pH 6.0
Description: At the end of the incubation, the amount of angiotensin I formed is measured by radioimmunoassay and the molar concentration required to cause 50% inhibition, expressed as the IC50 is calculated.

`CCCC[C@H](NC(=O)C(Cc1ccccc1)Cc1ccccc1)C(=O)N[C@@H](CC1CCCCC1)[C@@H](O)[C@H]1OC[C@@H]1CC` [Example 188, Dibenzylacetyl-(nor)Leucine Amide of (1R,2S,2'S,3'S)-2-Amino-3-cyclohexyl-1-[3'-(ethyl)oxetan-2'-yl]-1-(hydroxy)propane] and `CCCC[C@H](NC(=O)[C@H](Cc1ccccc1)Cn1ccnc1)C(=O)N[C@@H](CC1CCCCC1)[C@@H](O)[C@H]1OC[C@@H]1CC` [Example 189, (2R)-2-Benzyl-3-(imidazol-1-yl)propionyl-(nor)Leucine Amide of (1R,2S,2'S,3'S)-2-Amino-3-cyclohexyl-1-[3'-(ethyl)oxetan-2'-yl]-1-(hydroxy)propane] are within 1.5-fold of each other in IC50: 0.68 nM for the first, 0.46 nM for the second.

First: CC[C@H]1CO[C@@H]1[C@H](O)[C@H](CC1CCCCC1)NC(=O)C(C)NC(=O)[C@H](Cc1ccccc1)CS(=O)(=O)N1CCN(C)CC1 (stereo partly drawn) [Example 191, (2S) 2-Benzyl-3-(1-methyl-piperazin-4-ylsulfonyl)propionylalanine Amide of (1R,2S,2'S,3'S)-2-Amino-3-cyclohexyl-1-[3'-(ethyl)oxetan-2'-yl]-1-(hydroxy)propane]
Second: CC[C@H]1CO[C@@H]1[C@H](O)[C@H](CC1CCCCC1)NC(=O)C(C)NC(=O)[C@H](Cc1ccccc1)Cn1ccnc1 (stereo partly drawn) [Example 192, (2R)-2-Benzyl-3-(imidazol-1-yl)propionyl-alanine Acid of (1R,2S,2'S,3'S)-2-Amino-3-cyclohexyl-1-[3'-(ethyl)oxetan-2'-yl]-1-(hydroxy)propane]
The IC50 of the first is 5.9-fold lower: 0.58 nM for the first, 3.4 nM for the second. The first is the more potent here.
